In US12600727B2, “Treatment of infections of toxoplasma gondii and closely related parasites” (WASHINGTON UNIVERSITY, priority 2018, dated 2026):
Where two headings read alike, the source gives them in different places.

Key:
Type in all cases: cell-based
[1] = tested on: Neospora caninum parasites (NC-1 strain); assay: N. caninum (NC-1, lac-Z) growth inhibition in HFF, β-Gal assay; settings: N. caninum NC-1 lac-Z, 72 h, 10-point dose response 5 μM-0.01 μM, average of three biological replicates, read-out: EC50
Method: Neospora caninum parasites (NC-1 strain) expressing a lac-Z transgene (1) were serially passaged as tachyzoites in human foreskin fibroblasts cultured in DMEM supplemented with 10% fetal bovine serum (FBS), glutamine (10 mM) and gentamycin (10 μg/mL). Mature cultures were scraped, syringe passed using a 25 g needle to release parasites, filtered through a 3 micron polycarbonate filter to remove host cell debris and counted prior to each assay. All cultures were maintained in a 37° C. incubator with 5% CO2 and were verified mycoplasma free using the e-Myco plus Mycoplasma PCR detection kit (Boca Scientific).
Compounds were prepared as 10 mM stock in 100% DMSO. Pyrimethamine (positive control) and DMSO were included as controls in all plates and all replicates. The EC50 values were determined using a 10-point dose response curve using a 2-fold dilution series from 5.0 μM to 0.01 μM across the plate. Experiments were conducted in 96-well plates containing confluent HFF cells. Each assay plate was inoculated with 1×10^3 parasites (100 μL) containing 100 μL of 2× compound and incubated for 72 h prior to preparation for the j-Gal assay as described in Seeber, F. et al., Gene 169 (1996): 39-45, hereby incorporated by reference in its entirety and particularly in relation to the β-Gal assay protocol. Briefly, culture medium was replaced, wells rinsed with 200 μL of PBS followed by incubation with 50 μL of lysis buffer (100 mM HEPES, 1 mM MgSO4, 1% Triton X-100, 5 mM DTT) for 10 min at 50° C.
EC50 values determined from 10-point dose response curve (5 μM-0.01 μM) and presented as the average of three biological replicates. Linear regression and dose response inhibition (log ([compound]) vs normalized response-variable slope) were performed with Prism 8 for Mac (Graphpad Software, Inc.) and both the fits and data are shown in FIG. 1. Values represent the average of three biological replicates each with two internal replicates and are plotted as mean±S.E.M.

[2] = tested on: Toxoplasma gondii strains expressing FLUC; assay: microbe, parasite or virus in culture
Method: The ability of bicyclic azetidines to inhibit different strains of T. gondii was tested using a series of firefly luciferase (FLUC)-tagged lines. […] A similar strategy was utilized to derive FLUC expressing lines from additional T. gondii strains MAS (type 4) and FOU (type 6).

[3] = tested on: Toxoplasma gondii tachyzoites (ME49-FLUC, type 2); assay: T. gondii ME49-FLUC tachyzoite growth inhibition in HFF, luciferase assay; settings: T. gondii ME49-FLUC (type 2) tachyzoites in HFF
Method: Toxoplasma gondii tachyzoites (ME49-FLUC, type 2) (27) were serially passaged in human foreskin fibroblasts (HFF) cultured in complete DMEM medium (DMEM supplemented with 10% fetal bovine serum (FBS), glutamine (10 mM) and gentamycin (10 μg/mL)). For each assay described, infected monolayers were scraped, needle passed (23 ga), and parasites were separated from host cell debris using a three (3) micron pore polycarbonate filter. HeLa cells were cultured in MEM media that contained 10% FBS, 4 mM L-glutamine and 10 mM HEPES solution. Cell culture and assays were conducted using a 37° C. incubator with 5% CO2. Cell cultures were negative for mycoplasma, as determined using the e-Myco plus kit (Intron Biotechnology).
White, clear bottom 96-well assay plates were set up as described above with the following modifications. Only the inner 60 wells were used for the assay in order to reduce variability that results from evaporation during incubation. Dilution of compound stock is as described above, with all wells containing a final concentration of 0.1% DMSO. DMSO (vehicle control) and pyrimethamine (2.5 μM, positive control) were included in the outside wells of all plates as controls. Liquid handling (serial dilutions, compound dilutions, cell feeding, plate-to-plate transfers, etc.) utilized a Dual Pod Biomek FX. Luciferase assays were performed using the integrated and automated platform (Beckman Coulter). The SAMI EX software was used to design and execute the screening assay and enabled efficient and uniform assay execution across all the assay plates.

**Q.** `COc1ccc(NC(=O)N2CCCCN3[C@H](CN(C)C)[C@H](c4ccc(C#Cc5ccccc5)cc4)[C@@H]3C2)cc1` [Compound 15, (8R,9S,10S)-10-((dimethylamino)methyl)-N-(4-methoxyphenyl)-9-(4-(phenylethynyl)phenyl)-1,6-diazabicyclo[6.2.0]decane-6-carboxamide] was tested. Which EC50 [1] did it give?
**A.** Its EC50 is 250 nM.

**Q.** What about the EC50 ([2]; genotype 4, read-out: Average EC50 ± S.D.) of the same compound?
**A.** The EC50 was 41.9 nM.

**Q.** And the EC50 ([2]; genotype 5, read-out: Average EC50 ± S.D.)?
**A.** Its EC50 is 26.9 nM.

**Q.** And the EC50 ([2]; genotype 6, read-out: Average EC50 ± S.D.)?
**A.** Its EC50 is 45.1 nM.

**Q.** And the EC50 ([2]; strain ME49, genotype 2, three or more independent titrations, read-out: Average EC50 ± S.D.)?
**A.** The EC50 was 49.4 nM.

**Q.** And the EC50 ([2]; strain VAND, genotype 10, three or more independent titrations, read-out: Average EC50 ± S.D.)?
**A.** Its EC50 is 27.9 nM.

**Q.** And the EC50 [3]?
**A.** Its EC50 is 22.6 nM.
